The experiment relates to patients with non-ST elevation ACS. Kind of experiment: MERLIN-TIMI 36 trial: randomized, double-blind, placebo-controlled; effect of ranolazine stratified by baseline BNP. The class given is in vivo, human. Conditions: ranolazine vs placebo. An excerpt: Ranolazine is believed to exert anti-ischemic effects through a reduction in myocardial cellular sodium and calcium overload with a consequent reduction in wall stress. B-type natriuretic peptide (BNP) is released in response to increased wall stress and is a potent indicator of risk in acute coronary syndromes (ACS). This study was a prospective evaluation of the interaction between BNP and the effect of ranolazine as part of a randomized, double-blind, placebo-controlled trial.
Plasma BNP were measured (ADVIA® BNP) at baseline (N=4543), 14 days (N=4079), and the Final Visit (N=3328) of the patients with non-ST elevation ACS randomized to ranolazine or placebo in the MERLIN-TIMI 36 trial. Patients were stratified using BNP>80 pg/mL based upon prior work with this assay. The primary endpoint of the trial was a composite of cardiovascular death, myocardial infarction, or recurrent ischemia (CVD/Ml/Rl).

We go through 1 molecule from US20080233191A1, “USE OF RANOLAZINE FOR ELEVATED BRAIN-TYPE NATRIURETIC PEPTIDE” (priority 2007, published 2008).

Structures are written as SMILES.

With `COc1ccccc1OCC(O)CN1CCN(CC(=O)Nc2c(C)cccc2C)CC1` (racemic) [ranolazine, (±)-N-(2,6-dimethylphenyl)-4-[2-hydroxy-3-(2-methoxyphenoxy)propyl]-1-piperazine-acetamide], the “endpoint component of worsening angina, HR” value is given as 0.55 (BNP>80 pg/mL, CI 0.35-0.84, p=0.005) and 0.90 (BNP≦80 pg/mL, 95% CI 0.63-1.28, p=0.55). Moreover, where the note is “patients with BNP>80 pg/mL, 95% CI 0.66-0.94, p=0.009”, the “primary endpoint (composite of cardiovascular death, myocardial infarction, or recurrent ischemia), HR” value was determined as 0.79. Besides, the “primary endpoint (composite of cardiovascular death, myocardial infarction, or recurrent ischemia), effect” value (patients with a negative BNP result, p-interaction=0.052) was “lack of detectable effect”.
